Counter-ions that a name gives are not always drawn.

This is an account of results in PMC5104425, “A Novel Selective Inhibitor of Delta-5 Desaturase Lowers Insulin Resistance and Reduces Body Weight in Diet-Induced Obese C57BL/6J Mice” (PLoS ONE, 2016).

Common to all, as to type: in vivo, C57BL/6J mice
The subject of one test is D5D. As to the kind of experiment: Blood fatty acids (PD markers AA, DGLA, EPA, DHA) after 6-week treatment in DIO mice. The following applies: sibutramine 30 mg/kg, 6 weeks. As to the method:
Fatty acids were extracted from blood and tissues by adding hexane-isopropanol-butylated hydroxytoluene (60:40:0.01, v/v/w). Samples were vortexed for 30 min. The hexane phase was removed and evaporated to dryness under nitrogen stream and vacuum. Dried samples were dissolved in methanol and analyzed by HPLC.
(§1) Mice were fed a high-fat diet (HFD) that has 60% kcal from fat and contains 0.09% (w/w) AA (D12492; Research diets, Inc., see S1 Table for fatty acid profile) from 5 weeks of age, and they were divided into 5 groups (7 animals per group) at 11 weeks of age based on BW and daily food intake. In this experiment, 30 mg/kg sibutramine, a […], was used as a positive control for anti-obesity effects. Mice were orally administered compound-326 at doses of 0.1, 1, and 10 mg/kg, sibutramine at a dose of 30 mg/kg, or vehicle for 6 weeks. After 6 weeks, blood concentrations of DGLA and AA under non-fasting condition were evaluated as pharmacodynamics (PD) markers, and oral glucose tolerance test (OGTT) was performed.

The test system of test [1] is DIO mice. As to the kind of experiment: Oral glucose tolerance test and HOMA-IR after 6-week treatment in DIO mice. Particulars: sibutramine 30 mg/kg, 6 weeks. As to the method:
as §1
On the last day of the experiment, mice were given an oral glucose load (2 g/kg) after overnight fasting. Blood samples were collected at specified time points of 0 (pre-glucose/fasting glucose levels), 10, 30, 60, and 120 min post glucose load for the determination of plasma glucose as well as insulin levels. Plasma glucose was enzymatically measured with auto-analyzer 7180 (Hitachi High-Technologies Corporation, Tokyo, Japan). Plasma insulin was measured with mouse insulin ELISA kit (Shibayagi, Gunma, Japan). The total area under the glucose curve was determined from time 0 to 120 min (AUC0–120 min) after glucose administration. Homeostasis model assessment-insulin […] (HOMA-IR) was calculated using the formula: [(fasted PG: mg/dL)×(fasted insulin; μU/mL)[…]/405] [28].

Test [2] deals with DIO mice. As to the kind of experiment: Anti-obesity effects in DIO mice, 6-week treatment (HFD D12492): BW, calorie intake, observations. The following applies: sibutramine 30 mg/kg p.o. As to the method: In this report, we performed 3 independent studies in DIO mice to characterize anti-obesity effects of our D5D specific inhibitor. Male C57BL/6J mice were obtained from Charles River Laboratories (Yokohama, Japan) or CLEA Japan (Osaka, Japan). The mice were fed a laboratory chow and water ad libitum and housed in a 12-h light/dark cycle. Compound or vehicle was administered once daily between 15: 00–19:00 by oral gavage. Body weight (BW) and food intake were monitored throughout the experiment.
as §1

For the molecule `CC(C)CC(N(C)C)C1(c2ccc(Cl)cc2)CCC1` (stereo not drawn) [sibutramine, Sibutramine hydrochloride monohydrate, reference compound], in the test on D5D, the “blood AA level” value is given as “slightly but significantly decreased”, the “blood AA to DGLA ratio” value is “slightly but significantly decreased” and the “blood DGLA level” value is given as “slightly but significantly decreased”. Moreover, the HOMA-IR result with DIO mice [1] was “significantly improved”. The BW entry with DIO mice [2] (6 weeks, BW then increased in line with food intake) was “potent BW loss for a week”. Further, the food intake entry with DIO mice [2] (from day 1, followed by a rebound) is “transient and potent decrease in food intake”.
